Source: the NIST ThermoML archive (doi:10.1016/j.fluid.2005.03.026)

Key:
[1] = molar heat capacity at constant pressure; conditions: 101.3 kPa, Liquid, Small sample (50 mg) DSC
[2] = molar heat capacity at constant pressure; xn = mol fraction of the nth substance listed; conditions: 101.3 kPa, Liquid, Small sample (50 mg) DSC

Cc1ccc(C)cc1 [1,4-dimethylbenzene]
[1]
Conditions	molar heat capacity at constant pressure [J/K/mol]
288.15 K	178.86
298.15 K	182.56
308.15 K	186.15

Cc1ccc(C)cc1 [1,4-dimethylbenzene] + CCCCCCCCCC
molar heat capacity at constant pressure [J/K/mol], [2]
Conditions	288.15 K	298.15 K	308.15 K
x1 = 0.05066	303.41	308.28	313.15
x1 = 0.1092	295.7	300.41	305.32
x1 = 0.1983	283.92	288.58	293.34
x1 = 0.3105	269	273.63	278.21
x1 = 0.3427	264.73	269.34	273.97
x1 = 0.4538	250.03	254.47	258.95
x1 = 0.4919	244.95	249.41	253.84
x1 = 0.5995	230.71	235.12	239.35
x1 = 0.6975	217.77	222.04	226.15
x1 = 0.7866	206.1	210.33	214.31
x1 = 0.8403	199.13	203.21	207.08
x1 = 0.8993	191.5	195.54	199.3
x1 = 0.9499	185.04	188.96	192.6

COC(=O)OC [dimethyl carbonate] + Cc1ccc(C)cc1
[2], x1 = 1
Conditions	molar heat capacity at constant pressure [J/K/mol]
288.15 K	163.61
298.15 K	164.65
308.15 K	165.92

Cc1ccc(C)cc1 [1,4-dimethylbenzene] + COC(=O)OC
molar heat capacity at constant pressure [J/K/mol], [2]
Conditions	288.15 K	298.15 K	308.15 K
x2 = 0	178.86	182.56	186.15
x2 = 0.04522	178.07	181.79	185.28
x2 = 0.09687	177.32	180.82	184.22
x2 = 0.2003	175.72	178.96	182.14
x2 = 0.3136	173.97	176.99	179.84
x2 = 0.4125	172.39	175.09	177.74
x2 = 0.4946	171.06	173.56	176.04
x2 = 0.5368	170.43	172.79	175.13
x2 = 0.6528	168.55	170.61	172.04
x2 = 0.8445	165.6	167.14	168.84
x2 = 0.9	164.89	166.25	167.79

CCCCCCCCCC [decane] + COC(=O)OC
molar heat capacity at constant pressure [J/K/mol], [2]
Conditions	288.15 K	298.15 K	308.15 K
x2 = 0	310.09	315.04	320.03
x2 = 0.0486	302.45	307.21	311.97
x2 = 0.1015	294.55	298.95	303.55
x2 = 0.1491	287.67	291.87	296.24
x2 = 0.198	280.61	284.73	288.82
x2 = 0.3041	266.76	269.88	273.33
x2 = 0.4015	255.05	256.83	259.45
x2 = 0.4497	250.05	250.5	252.64
x2 = 0.5505	242.42	236.43	238.36
x2 = 0.6011	237.62	229.81	230.9
x2 = 0.6454	231.62	223.97	–
x2 = 0.6945	223.46	216.47	216.49
x2 = 0.7943	202.82	198.92	199.64
x2 = 0.8464	–	189.34	190.56
x2 = 0.8975	179.17	180.34	181.8
x2 = 0.949	170.97	172.02	173.51

COC(=O)OC [dimethyl carbonate]
[1]
Conditions	molar heat capacity at constant pressure [J/K/mol]
288.15 K	163.61
298.15 K	164.65
308.15 K	165.92

CCCCCCCCCC [decane]
[1]
Conditions	molar heat capacity at constant pressure [J/K/mol]
288.15 K	310.09
298.15 K	315.04
308.15 K	320.03
